Like-named read-outs stand apart in the source and are kept apart here.
Experiments:
[1] = tested on: Myzus persicae; assay: Myzus persicae - spray test (Chinese cabbage leaf discs); type: in vivo; conditions: Myzus persicae, foliar; application rate 500 g/ha, after 5-6 days; read-out: efficacy
Description: Myzus persicae—Spray Test
Solvent: 78 parts by weight of acetone • • 1.5 parts by weight of dimethylformamide
(§1) Emulsifier: alkylaryl polyglycol ether
(§2) To produce a suitable active compound preparation, 1 part by weight of active compound is dissolved using the stated parts by weight of solvent and made up with water containing an emulsifier concentration of 1000 ppm until the desired concentration is attained. To produce further test concentrations, the formulation is diluted with emulsifier-containing water.
Discs of Chinese cabbage leaves (Brassica pekinensis) infested by all stages of the green peach aphid (Myzus persicae) are sprayed with an active ingredient formulation of the desired concentration.
After 5-6 days, the efficacy in % is determined. 100% means that all the aphids have been killed; 0% means that no aphids have been killed.

[2] = tested on: Myzus persicae; assay: Myzus persicae - oral test (MYZUPE O); type: in vivo; conditions: read-out: % efficacy
Description: Myzus persicae—Oral Test (MYZUPE O)
(§3) Solvent: 100 parts by weight of acetone
(§4) To produce a suitable preparation of active compound, 1 part by weight of active compound is dissolved using the specified parts by weight of solvent and made up with water until the desired concentration is attained.
(§5) 50 μl of the active compound preparation are transferred into microtitre plates and made up to a final volume of 200 μl with 150 μl of IPL41 insect medium (33%+15% sugar). Subsequently, the plates are sealed with parafilm, which a mixed population of green peach aphids (Myzus persicae) within a second microtitre plate is able to puncture and imbibe the solution through it.
(§6) After the desired period of time, the efficacy in % is determined. 100% means that all the aphids have been killed; 0% means that no aphids have been killed.

[3] = log P by HPLC on reversed-phase (C18) columns, OECD Guideline 117; type: physicochemical; conditions: reversed-phase (C18) HPLC column
Description: The log P values were determined in accordance with OECD Guideline 117 (EC Directive 92/69/EEC) by HPLC (high-performance liquid chromatography) using reversed-phase (RP) columns (C18), by the following methods:
[a] The LC-MS determination in the acidic range was carried out at pH 2.7 with 0.1% aqueous formic acid and acetonitrile (contains 0.1% formic acid) as mobile phases; linear gradient from 10% acetonitrile to 95% acetonitrile.
[b] LC-MS determination in the neutral range was carried out at pH 7.8 with 0.001 molar aqueous ammonium hydrogencarbonate solution and acetonitrile as mobile phases; linear gradient from 10% acetonitrile to 95% acetonitrile.

[4] = tested on: Myzus persicae; assay: Myzus persicae - spray test (MYZUPE S), bell pepper plants; type: in vivo; conditions: 144 h, 6 dat, read-out: % efficacy
Description: Myzus persicae—Spray Test (MYZUPE S)
(§7) Solvent: 14 parts by weight of dimethylformamide
as §1
as §2, with “with” for “using”, “specified” for “stated”, “water. If the addition of ammonium salts or/and penetrants is required, these are each added in a concentration of 1000 ppm to the formulation solution.” for “water.”
Bell pepper plants (Capsicum annuum) severely infested with the green peach aphid (Myzus persicae) are treated by spraying with the active ingredient formulation in the desired concentration.
After the desired time, the kill in % is determined. 100% means that all the animals have been killed; 0% means that no animals have been killed.

[5] = tested on: Aphis gossypii; assay: Aphis gossypii - spray test (APHIGO S), cotton plants; type: in vivo; conditions: 144 h, 6 dat, read-out: % efficacy
Description: Aphis gossypii—Spray Test (APHIGO S)
as §7, §1
as §2, with “water. If the addition of ammonium salts or/and penetrants is required, these are each added in a concentration of 1000 ppm to the formulation solution.” for “water.”
Cotton plants (Gossypium hirsutum) heavily infested by the cotton aphid (Aphis gossypii) are sprayed with an active ingredient formulation of the desired concentration.
After the desired time, the kill in % is determined. 100% means that all the aphids have been killed; 0% means that no aphids have been killed.

[6] = tested on: Myzus persicae; assay: Myzus persicae - spray test (MYZUPE), Chinese cabbage leaf discs; type: in vivo; conditions: foliar; for percent efficacy (aphid mortality) at 100 g/ha: 100 g of ai/ha
Description: Myzus persicae—Spray Test (MYZUPE)
Solvent: 78.0 parts by weight of acetone • • 1.5 parts by weight of dimethylformamide
as §1, §2
Discs of Chinese cabbage leaves (Brassica pekinensis) infested by all stages of the green peach aphid (Myzus persicae) are sprayed with an active compound preparation of the desired concentration.
as §6

[7] = tested on: Myzus persicae; assay: Myzus persicae - oral test; type: in vivo; conditions: Myzus persicae, po, 120 h; application rate 20 ppm, after 5 days; read-out: efficacy
Description: as §3, §4, §5
After 5 days, the efficacy in % is determined. 100% means that all the aphids have been killed; 0% means that no aphids have been killed.

[8] = tested on: Myzus persicae; assay: Myzus persicae - drench test (MYZUPE D), Savoy cabbage in soil; type: in vivo; conditions: 240 h, 10 dat, read-out: % efficacy
Description: Myzus persicae—Drench Test (MYZUPE D)
To produce a suitable active compound preparation, 1 part by weight of active compound is mixed with the specified amounts of solvent and emulsifier, and the concentrate is diluted with water to the desired concentration, it being necessary to include the volume of soil which is drenched in the calculation. It should be ensured that a concentration of 40 ppm of emulsifier in the soil is not exceeded. To produce further test concentrations, water is used for dilution.
Savoy cabbage (Brassica oleracea) in pots with soil and infested by all stages of the green peach aphid (Myzus persicae) is watered with an active compound preparation of the desired concentration.
as §6

[9] = acidic range, pH 2.7, 0.1% aqueous formic acid/acetonitrile, read-out: logP[a]
[10] = neutral range, pH 7.8, aqueous ammonium hydrogencarbonate/acetonitrile, read-out: logP[n]

Row | Structure (SMILES) | chromatographic logP [3, 9] | chromatographic logP [3, 10] | pest or weed control at 500 g/ha [1] | Emax at 4 ppm ([2]; 120 h, 5 dat) | Emax at 0.16 ppm [4] | Emax at 0.8 ppm [5] | Emax at 4 ppm ([5]; 4 ppm) | percent efficacy (aphid mortality) at 20 g/ha ([6]; 120 h, 20 g of ai/ha, 5 dat) | percent efficacy (aphid mortality) at 100 g/ha ([6]; 120 h, 5 dat) | pest or weed control at 20 ppm [7] | Emax at 0.16 ppm [8] | Emax at 4 ppm ([2]; 144 h, 6 dat) | percent efficacy (aphid mortality) at 100 g/ha ([6]; 144 h, 6 dat) | percent kill (mortality) of aphids at a fixed dose at 0.8 ppm [5] | percent kill (mortality) of aphids at a fixed dose at 4 ppm ([5]; 4 ppm) | Emax at 20 g/ha ([6]; 120 h, 20 g of ai/ha, 5 dat, read-out: % efficacy)
1 | CN(C(=O)c1cnc(CSCC(C)(C)C)n1C)c1cccnc1 [Example I-1-36] | 1.42 | 2.06 | 90% | 100% | 75% | 98% | 98% | 90% | 90% | 100% | 80% |  |  |  |  | 
2 | CN(C(=O)c1cnc(Cn2nccn2)n1C)c1cccnc1 [Example I-1-47] | 0.35 | 0.75 | 100% |  | 90% | 100% | 100% |  |  | 100% | 90% | 100% | 90% |  |  | 
3 | CCSCc1ncc(C(=O)N(CC)c2cccnc2)n1C [Example I-1-49] | 0.71 |  | 90% | 100% | 95% | 98% | 100% | 70% | 70% | 100% | 95% |  |  |  |  | 
4 | CCN(C(=O)c1cnc(CSC(C)C)n1C)c1cccnc1 [Example I-1-50] | 1.1 | 1.73 | 90% | 100% | 100% |  | 95% |  | 90% | 100% | 98% |  |  | 90% |  | 70%

Second part, led by results:

Row | chromatographic logP [3, 9] | chromatographic logP [3, 10] | Structure (SMILES) | pest or weed control at 500 g/ha [1] | Emax at 4 ppm ([2]; 120 h, 5 dat) | Emax at 0.16 ppm [4] | Emax at 0.8 ppm [5] | Emax at 4 ppm ([5]; 4 ppm) | percent efficacy (aphid mortality) at 20 g/ha ([6]; 120 h, 20 g of ai/ha, 5 dat) | percent efficacy (aphid mortality) at 100 g/ha ([6]; 120 h, 5 dat) | pest or weed control at 20 ppm [7] | Emax at 0.16 ppm [8] | Emax at 4 ppm ([2]; 144 h, 6 dat) | percent efficacy (aphid mortality) at 100 g/ha ([6]; 144 h, 6 dat) | percent kill (mortality) of aphids at a fixed dose at 0.8 ppm [5] | percent kill (mortality) of aphids at a fixed dose at 4 ppm ([5]; 4 ppm) | Emax at 20 g/ha ([6]; 120 h, 20 g of ai/ha, 5 dat, read-out: % efficacy)
5 | 0.75 | 1.03 | CN(C(=O)c1cnc(CS(=O)(=O)C(C)(C)C)n1C)c1cccnc1 [Example I-1-34] | 100% | 100% | 45% | 85% | 95% | 90% | 90% | 100% | 90% |  |  |  |  | 
6 | 0.96 | 1.57 | CN(C(=O)c1cnc(CSCC2CC2)n1C)c1cccnc1 [Example I-1-35] | 100% | 100% | 100% | 99% | 100% | 90% | 90% | 100% | 98% |  |  |  |  | 
7 | 0.71 | 1.04 | CN(C(=O)c1cnc(CS(=O)(=O)CC2CC2)n1C)c1cccnc1 [Example I-1-48] | 100% | 100% | 99% |  |  | 100% | 100% | 100% | 90% |  |  | 100% | 100% | 

Reference: patent US10689365B2, “Substituted 2-alkylimidazolylcarboxamides as pesticides” (Bayer CropScience Aktiengesellschaft, priority 2016, dated 2020)
